The subject of test [1] is subjects who had been frequent users of Viagra®. The test is described as follows: blinded study in volunteers, subjective evaluation whether an adequate, satisfactory erection was achieved. The settings on record: oral capsule, out of 12 subjects. The format is in vivo, human. On the procedure: In its preferred embodiment, three composition containing sildenafil citrate 12.5 mg, 25 or 50 mg containing the same amounts of L-arginine 200 mg, ginseng 100 mg, folic acid 0.5 mg, vitamin B6 100 mg and vitamin B12 0.75 mg were formulated in a capsule dosage form with suitable inert diluents to hide the identity of the product. […] In a blinded study, the volunteers were given all six products to test on an ad-lib basis. They were informed that the test includes evaluation of two formulations of sildenafil citrate. The volunteers were asked to evaluate the response subjectively whether an adequate, satisfactory erection was achieved. In its preferred embodiment, three composition containing sildenafil citrate 12.5 mg, 25 or 50 mg, and the same amounts of L-arginine 200 mg, ginseng 100 mg, folic acid 0.5 mg, vitamin B6 100 mg and vitamin B12 0.75 mg were formulated in a capsule dosage form with suitable inert diluents to hide the identity of the product. […] In a blinded study, the volunteers were given all six products to test on an ad-lib basis. They were informed that the test includes evaluation of two formulations of sildenafil citrate. At the lowest dose of 12.5 mg, when given alone, only 3 out of 12 subjects reported erection; when given as the composition described, 7 out of 12 subjects reported satisfactory erection. At 25 mg dose 8 out of 12 subjects reported satisfactory erection while 10 subjects reported satisfactory erection at 25 mg dose when given as the composition described. At 50 mg dose the difference was narrowed to 10 subjects reporting erection when given alone and 11 when given as the composition described. It is concluded from this study that using the combination of ingredients as specified in the composition, the required dose of sildenafil to treat sexual dysfunction can be reduced to achieve the same effect as when given alone but at higher does. The most significant advantage appears at lower doses. […]

For the next test, the system named is men. The settings on record: controlled clinical trials; cited from earlier work.
Test [2] has as its system isolated human corpus cavernosum. Particulars: cited from earlier work.

Structures are written as SMILES.

As for `CCCc1nn(C)c2c(=O)[nH]c(-c3cc(S(=O)(=O)N4CCN(C)CC4)ccc3OCC)nc12.O=C(O)CC(O)(CC(=O)O)C(=O)O` [Viagra®, 1-[[3-(6,7-dihydro-1-methyL-7-oxo-3-propyL-1H-pyrazolo[4,3-d]pyrimidin-5-yl)-4-ethoxyphenyl]sulfonyl]-4-methylpiperazine citrate], the “subjects reporting satisfactory erection” value amounted to 3 subjects in test [1] (12.5 mg sildenafil citrate dose), 8 subjects in test [1] (25 mg sildenafil citrate dose) and 10 subjects in test [1] (50 mg sildenafil citrate dose). Also, the “proves effective in men” value in the test on men was 7 out of 10. In test [2], the direct relaxant effect result was “no direct relaxant effect”.

The record behind these values is patent publication US6338862B1, “Composition and method of use in treating sexual dysfunction using cGMP-specific phosphodiesterase type 5 inhibitors” (priority 2001, dated 2002).
